Test results from ChEMBL document CHEMBL4507278 (2021).

What was measured:
[1] = target: AP2-associated protein kinase 1 (Homo sapiens) (UniProt Q2M2I8); settings: Compound concentration 1000.0 nM
[2] = target: Activin receptor type-2A (Homo sapiens) (UniProt P27037); settings: Compound concentration 1000.0 nM
[3] = target: Activin receptor type-2B (Homo sapiens) (UniProt Q13705); settings: Compound concentration 1000.0 nM
[4] = target: Protein-tyrosine kinase 6 (Homo sapiens) (UniProt Q13882); settings: Compound concentration 1000.0 nM
[5] = target: Peripheral plasma membrane protein CASK (Homo sapiens) (UniProt O14936); settings: Compound concentration 1000.0 nM
[6] = target: Cyclin-dependent kinase 4 (Homo sapiens) (UniProt P11802); settings: Compound concentration 1000.0 nM
[7] = target: Citron Rho-interacting kinase (Homo sapiens) (UniProt O14578); settings: Compound concentration 1000.0 nM
[8] = target: Macrophage colony-stimulating factor 1 receptor (Homo sapiens) (UniProt P07333); settings: Compound concentration 1000.0 nM
[9] = target: Tyrosine-protein kinase CSK (Homo sapiens) (UniProt P41240); settings: Compound concentration 1000.0 nM
[10] = target: Casein kinase I isoform alpha (Homo sapiens) (UniProt P48729); settings: Compound concentration 1000.0 nM
[11] = target: Dual specificity tyrosine-phosphorylation-regulated kinase 2 (Homo sapiens) (UniProt Q92630); settings: Compound concentration 1000.0 nM
[12] = system: Epidermal growth factor receptor (Homo sapiens), P00533 [UNDEFINED MUTATION]; settings: Compound concentration 1000.0 nM
[13] = system: Epidermal growth factor receptor (Homo sapiens), P00533 [G719S]; settings: Compound concentration 1000.0 nM
[14] = system: Epidermal growth factor receptor (Homo sapiens), P00533 [UNDEFINED MUTATION]; settings: Compound concentration 1000.0 nM; remark: listed apart in the source
[15] = target: Ephrin type-A receptor 5 (Homo sapiens) (UniProt P54756); settings: Compound concentration 1000.0 nM
[16] = target: Receptor-type tyrosine-protein kinase FLT3 (Homo sapiens) (UniProt P36888); settings: Compound concentration 1000.0 nM
[17] = target: Vascular endothelial growth factor receptor 3 (Homo sapiens) (UniProt P35916); settings: Compound concentration 1000.0 nM
[18] = target: Serine/threonine-protein kinase haspin (Homo sapiens) (UniProt Q8TF76); settings: Compound concentration 1000.0 nM
[19] = system: Mast/stem cell growth factor receptor Kit (Homo sapiens), P10721 [A829P]; settings: Compound concentration 1000.0 nM
Chain of Mast/stem cell growth factor receptor Kit (Homo sapiens), P10721 [A829P] (P10721 whole entry A829P): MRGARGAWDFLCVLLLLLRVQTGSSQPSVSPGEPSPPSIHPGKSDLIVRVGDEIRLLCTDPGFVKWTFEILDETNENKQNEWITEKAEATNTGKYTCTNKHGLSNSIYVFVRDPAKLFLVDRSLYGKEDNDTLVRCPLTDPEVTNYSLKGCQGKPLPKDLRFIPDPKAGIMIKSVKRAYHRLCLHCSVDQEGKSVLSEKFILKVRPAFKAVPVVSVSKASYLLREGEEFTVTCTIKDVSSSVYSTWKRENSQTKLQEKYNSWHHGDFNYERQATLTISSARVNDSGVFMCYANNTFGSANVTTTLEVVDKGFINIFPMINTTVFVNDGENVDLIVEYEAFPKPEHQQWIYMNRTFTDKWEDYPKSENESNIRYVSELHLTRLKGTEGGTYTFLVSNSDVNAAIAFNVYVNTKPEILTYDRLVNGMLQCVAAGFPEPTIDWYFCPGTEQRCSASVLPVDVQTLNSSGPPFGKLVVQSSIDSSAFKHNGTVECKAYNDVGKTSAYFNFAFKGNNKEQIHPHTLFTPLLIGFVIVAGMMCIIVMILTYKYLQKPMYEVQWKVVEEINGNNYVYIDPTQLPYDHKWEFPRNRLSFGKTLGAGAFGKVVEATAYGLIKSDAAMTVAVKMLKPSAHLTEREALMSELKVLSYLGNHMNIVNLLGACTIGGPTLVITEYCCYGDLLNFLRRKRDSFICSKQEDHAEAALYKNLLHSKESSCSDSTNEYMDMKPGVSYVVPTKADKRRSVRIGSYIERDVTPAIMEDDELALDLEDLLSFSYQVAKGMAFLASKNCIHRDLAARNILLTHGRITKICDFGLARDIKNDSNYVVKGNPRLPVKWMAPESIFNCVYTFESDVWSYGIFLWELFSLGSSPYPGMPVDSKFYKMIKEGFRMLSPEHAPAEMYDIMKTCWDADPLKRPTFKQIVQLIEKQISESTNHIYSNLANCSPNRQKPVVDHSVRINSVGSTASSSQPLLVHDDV

[20] = system: Mast/stem cell growth factor receptor Kit (Homo sapiens), P10721 [D816H]; settings: Compound concentration 1000.0 nM
[21] = system: Mast/stem cell growth factor receptor Kit (Homo sapiens), P10721 [V559D,V654A]; settings: Compound concentration 1000.0 nM
Chain of Mast/stem cell growth factor receptor Kit (Homo sapiens), P10721 [V559D,V654A] (P10721 whole entry V559D/V654A): as the sequence (P10721 whole entry A829P) above, with V559D, V654A, P829A counted along it

[22] = target: Serine/threonine-protein kinase STK11 (Homo sapiens) (UniProt Q15831); settings: Compound concentration 1000.0 nM
[23] = target: Mitogen-activated protein kinase kinase kinase kinase 3 (Homo sapiens) (UniProt Q8IVH8); settings: Compound concentration 1000.0 nM
[24] = target: Dual specificity mitogen-activated protein kinase kinase 5 (Homo sapiens) (UniProt Q13163); settings: Compound concentration 1000.0 nM
[25] = target: Hepatocyte growth factor receptor (Homo sapiens) (UniProt P08581); settings: Compound concentration 1000.0 nM
[26] = target: MAP kinase-interacting serine/threonine-protein kinase 1 (Homo sapiens) (UniProt Q9BUB5); settings: Compound concentration 1000.0 nM
[27] = target: Serine/threonine-protein kinase 26 (Homo sapiens) (UniProt Q9P289); settings: Compound concentration 1000.0 nM
[28] = target: Serine/threonine-protein kinase mTOR (Homo sapiens) (UniProt P42345); settings: Compound concentration 1000.0 nM
[29] = target: Serine/threonine-protein kinase Nek1 (Homo sapiens) (UniProt Q96PY6); settings: Compound concentration 1000.0 nM
[30] = target: Cyclin-dependent kinase 18 (Homo sapiens) (UniProt Q07002); settings: Compound concentration 1000.0 nM
[31] = target: Platelet-derived growth factor receptor beta (Homo sapiens) (UniProt P09619); settings: Compound concentration 1000.0 nM
[32] = target: Phosphorylase b kinase gamma catalytic chain, skeletal muscle/heart isoform (Homo sapiens) (UniProt Q16816); settings: Compound concentration 1000.0 nM
[33] = target: 1-phosphatidylinositol 3-phosphate 5-kinase (Homo sapiens) (UniProt Q9Y2I7); settings: Compound concentration 1000.0 nM
Chain of 1-phosphatidylinositol 3-phosphate 5-kinase (Homo sapiens) (Q9Y2I7 whole entry): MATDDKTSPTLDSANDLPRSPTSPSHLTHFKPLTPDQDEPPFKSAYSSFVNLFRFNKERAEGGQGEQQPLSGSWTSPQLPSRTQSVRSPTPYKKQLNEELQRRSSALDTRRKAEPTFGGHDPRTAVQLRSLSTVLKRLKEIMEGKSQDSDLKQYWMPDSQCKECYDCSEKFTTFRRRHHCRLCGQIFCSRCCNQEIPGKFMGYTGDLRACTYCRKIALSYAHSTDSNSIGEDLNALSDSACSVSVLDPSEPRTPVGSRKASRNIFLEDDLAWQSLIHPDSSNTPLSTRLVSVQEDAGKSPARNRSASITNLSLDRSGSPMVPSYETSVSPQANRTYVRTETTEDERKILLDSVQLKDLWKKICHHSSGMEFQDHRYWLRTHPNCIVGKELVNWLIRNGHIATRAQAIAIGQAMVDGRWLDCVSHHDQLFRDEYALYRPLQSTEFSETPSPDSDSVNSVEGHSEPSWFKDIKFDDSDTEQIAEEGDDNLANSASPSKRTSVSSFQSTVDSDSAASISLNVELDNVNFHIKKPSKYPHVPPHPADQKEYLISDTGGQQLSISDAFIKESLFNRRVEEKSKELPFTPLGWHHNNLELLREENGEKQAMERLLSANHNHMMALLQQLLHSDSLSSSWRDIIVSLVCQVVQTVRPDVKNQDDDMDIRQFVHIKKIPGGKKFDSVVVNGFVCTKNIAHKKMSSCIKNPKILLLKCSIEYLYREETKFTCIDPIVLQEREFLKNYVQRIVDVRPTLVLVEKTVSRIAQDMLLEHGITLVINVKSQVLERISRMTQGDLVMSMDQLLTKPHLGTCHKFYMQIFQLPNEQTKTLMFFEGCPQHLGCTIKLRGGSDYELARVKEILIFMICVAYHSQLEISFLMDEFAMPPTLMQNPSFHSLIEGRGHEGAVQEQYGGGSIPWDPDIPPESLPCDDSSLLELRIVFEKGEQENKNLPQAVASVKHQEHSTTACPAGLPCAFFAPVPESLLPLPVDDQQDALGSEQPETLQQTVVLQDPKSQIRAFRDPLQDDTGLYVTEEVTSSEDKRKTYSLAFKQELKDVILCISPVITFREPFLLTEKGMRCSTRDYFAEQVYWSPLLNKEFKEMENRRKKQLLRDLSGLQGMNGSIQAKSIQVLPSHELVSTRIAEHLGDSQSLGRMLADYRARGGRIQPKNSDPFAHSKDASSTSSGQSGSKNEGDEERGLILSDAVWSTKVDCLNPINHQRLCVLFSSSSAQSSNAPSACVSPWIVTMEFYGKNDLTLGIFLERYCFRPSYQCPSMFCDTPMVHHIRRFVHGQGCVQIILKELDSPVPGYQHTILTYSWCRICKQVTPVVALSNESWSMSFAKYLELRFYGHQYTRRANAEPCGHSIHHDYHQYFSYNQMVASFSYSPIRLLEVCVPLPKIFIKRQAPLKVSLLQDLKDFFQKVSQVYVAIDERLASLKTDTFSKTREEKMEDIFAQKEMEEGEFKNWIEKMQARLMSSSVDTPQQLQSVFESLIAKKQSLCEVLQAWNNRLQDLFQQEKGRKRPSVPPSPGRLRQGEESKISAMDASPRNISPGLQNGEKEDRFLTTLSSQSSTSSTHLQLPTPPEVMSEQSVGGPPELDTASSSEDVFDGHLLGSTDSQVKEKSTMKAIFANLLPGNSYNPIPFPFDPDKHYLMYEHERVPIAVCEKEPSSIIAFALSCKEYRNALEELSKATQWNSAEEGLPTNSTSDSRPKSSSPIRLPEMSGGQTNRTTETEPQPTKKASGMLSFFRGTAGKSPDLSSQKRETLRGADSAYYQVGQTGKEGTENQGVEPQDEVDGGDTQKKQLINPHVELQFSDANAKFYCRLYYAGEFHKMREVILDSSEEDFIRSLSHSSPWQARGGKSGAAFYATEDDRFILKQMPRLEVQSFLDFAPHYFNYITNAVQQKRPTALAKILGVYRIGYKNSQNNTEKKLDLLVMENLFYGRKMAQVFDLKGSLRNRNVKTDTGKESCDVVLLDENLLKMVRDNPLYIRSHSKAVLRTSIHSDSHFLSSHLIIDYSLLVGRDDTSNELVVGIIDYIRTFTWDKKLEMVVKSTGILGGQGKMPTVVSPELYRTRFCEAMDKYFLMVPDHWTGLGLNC

[34] = target: Serine/threonine-protein kinase N1 (Homo sapiens) (UniProt Q16512); settings: Compound concentration 1000.0 nM
[35] = target: Protein-tyrosine kinase 2-beta (Homo sapiens) (UniProt Q14289); settings: Compound concentration 1000.0 nM
[36] = target: Receptor-interacting serine/threonine-protein kinase 4 (Homo sapiens) (UniProt P57078); settings: Compound concentration 1000.0 nM
[37] = target: Proto-oncogene tyrosine-protein kinase Src (Homo sapiens) (UniProt P12931); settings: Compound concentration 1000.0 nM
[38] = target: SRSF protein kinase 1 (Homo sapiens) (UniProt Q96SB4); settings: Compound concentration 1000.0 nM
[39] = target: SRSF protein kinase 2 (Homo sapiens) (UniProt P78362); settings: Compound concentration 1000.0 nM
[40] = target: Angiopoietin-1 receptor (Homo sapiens) (UniProt Q02763); settings: Compound concentration 1000.0 nM
Chain of Angiopoietin-1 receptor (Homo sapiens) (Q02763 whole entry): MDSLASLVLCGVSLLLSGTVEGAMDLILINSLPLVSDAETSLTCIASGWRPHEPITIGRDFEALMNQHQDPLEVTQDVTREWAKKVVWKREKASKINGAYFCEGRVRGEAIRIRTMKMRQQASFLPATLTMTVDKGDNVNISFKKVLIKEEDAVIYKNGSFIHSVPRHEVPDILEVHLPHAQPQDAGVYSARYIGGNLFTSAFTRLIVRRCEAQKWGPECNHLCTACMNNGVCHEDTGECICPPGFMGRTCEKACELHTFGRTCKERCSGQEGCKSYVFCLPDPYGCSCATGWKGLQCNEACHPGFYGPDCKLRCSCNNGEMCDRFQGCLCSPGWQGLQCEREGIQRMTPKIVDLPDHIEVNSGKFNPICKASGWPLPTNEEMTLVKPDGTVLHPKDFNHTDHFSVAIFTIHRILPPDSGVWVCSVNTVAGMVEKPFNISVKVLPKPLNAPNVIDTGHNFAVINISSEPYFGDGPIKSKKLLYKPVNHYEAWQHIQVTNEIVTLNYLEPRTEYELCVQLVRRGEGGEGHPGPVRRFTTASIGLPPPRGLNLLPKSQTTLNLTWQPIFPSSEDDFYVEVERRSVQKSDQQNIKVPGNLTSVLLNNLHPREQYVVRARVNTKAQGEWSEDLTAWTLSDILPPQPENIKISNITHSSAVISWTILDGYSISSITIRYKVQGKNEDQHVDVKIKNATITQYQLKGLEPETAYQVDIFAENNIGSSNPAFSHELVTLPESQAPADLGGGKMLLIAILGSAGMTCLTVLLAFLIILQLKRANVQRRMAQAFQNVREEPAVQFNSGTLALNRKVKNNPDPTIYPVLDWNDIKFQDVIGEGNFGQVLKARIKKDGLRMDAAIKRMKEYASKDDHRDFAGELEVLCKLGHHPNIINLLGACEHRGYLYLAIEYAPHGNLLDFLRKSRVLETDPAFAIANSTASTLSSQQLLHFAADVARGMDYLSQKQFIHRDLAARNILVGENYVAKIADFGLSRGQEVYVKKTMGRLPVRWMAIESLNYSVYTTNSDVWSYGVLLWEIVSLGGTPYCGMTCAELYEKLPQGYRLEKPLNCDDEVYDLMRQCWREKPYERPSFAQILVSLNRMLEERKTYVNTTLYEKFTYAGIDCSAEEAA

[41] = target: Serine/threonine-protein kinase tousled-like 2 (Homo sapiens) (UniProt Q86UE8); settings: Compound concentration 1000.0 nM
[42] = target: Histamine H3 receptor (Homo sapiens) (UniProt Q9Y5N1); settings: Compound concentration 10.0 uM
[43] = target: Alpha-1A adrenergic receptor (Homo sapiens) (UniProt P35348); settings: Compound concentration 10.0 uM
Chain of Alpha-1A adrenergic receptor (Homo sapiens) (P35348 whole entry): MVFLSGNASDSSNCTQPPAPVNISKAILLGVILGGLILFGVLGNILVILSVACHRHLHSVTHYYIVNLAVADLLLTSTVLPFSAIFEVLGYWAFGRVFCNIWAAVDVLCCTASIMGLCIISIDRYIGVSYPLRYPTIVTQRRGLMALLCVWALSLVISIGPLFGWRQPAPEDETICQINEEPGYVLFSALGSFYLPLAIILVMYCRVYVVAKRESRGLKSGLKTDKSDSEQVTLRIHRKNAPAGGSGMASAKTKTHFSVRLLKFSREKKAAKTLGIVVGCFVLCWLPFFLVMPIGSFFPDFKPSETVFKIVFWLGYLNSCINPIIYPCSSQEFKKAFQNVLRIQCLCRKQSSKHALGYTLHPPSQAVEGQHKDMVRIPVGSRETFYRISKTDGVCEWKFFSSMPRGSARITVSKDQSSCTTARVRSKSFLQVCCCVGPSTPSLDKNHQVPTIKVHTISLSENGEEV

[44] = target: Alpha-2C adrenergic receptor (Homo sapiens) (UniProt P18825); settings: Compound concentration 10.0 uM
[45] = target: Beta-3 adrenergic receptor (Homo sapiens) (UniProt P13945); settings: Compound concentration 10.0 uM
Chain of Beta-3 adrenergic receptor (Homo sapiens) (P13945 whole entry, looked up): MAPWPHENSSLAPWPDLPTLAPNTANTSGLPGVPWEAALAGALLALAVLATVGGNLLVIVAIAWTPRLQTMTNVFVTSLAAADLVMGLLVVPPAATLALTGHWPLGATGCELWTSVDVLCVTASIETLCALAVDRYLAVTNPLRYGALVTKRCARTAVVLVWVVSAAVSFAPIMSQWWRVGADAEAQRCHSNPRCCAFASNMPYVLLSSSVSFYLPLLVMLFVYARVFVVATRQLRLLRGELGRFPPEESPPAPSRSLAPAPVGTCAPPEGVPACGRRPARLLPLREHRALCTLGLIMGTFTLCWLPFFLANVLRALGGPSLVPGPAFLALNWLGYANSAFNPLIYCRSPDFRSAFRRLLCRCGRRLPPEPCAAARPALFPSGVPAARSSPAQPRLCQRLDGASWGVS

SMILES: CS(=O)(=O)NCC[C@H](NC(=O)c1cncc2c1cnn2-c1ccc(F)cc1)c1ccnc(S(C)(=O)=O)c1 [BI 9307]
- residual activity [1]: 100%
- residual activity [2]: 81%
- residual activity [3]: 90%
- residual activity [4]: 96%
- residual activity [5]: 100%
- residual activity [6]: 100%
- residual activity [7]: 73%
- residual activity [8]: 100%
- residual activity [9]: 98%
- residual activity [10]: 100%
- residual activity [11]: 91%
- residual activity [12]: 92%
- residual activity [13]: 75%
- residual activity [14]: 71%
- residual activity [15]: 100%
- residual activity [16]: 100%
- residual activity [17]: 100%
- residual activity [18]: 100%
- residual activity [19]: 83%
- residual activity [20]: 100%
- residual activity [21]: 100%
- residual activity [22]: 100%
- residual activity [23]: 90%
- residual activity [24]: 92%
- residual activity [25]: 79%
- residual activity [26]: 95%
- residual activity [27]: 98%
- residual activity [28]: 88%
- residual activity [29]: 45%
- residual activity [30]: 100%
- residual activity [31]: 100%
- residual activity [32]: 75%
- residual activity [33]: 76%
- residual activity [34]: 100%
- residual activity [35]: 84%
- residual activity [36]: 88%
- residual activity [37]: 96%
- residual activity [38]: 83%
- residual activity [39]: 100%
- residual activity [40]: 84%
- residual activity [41]: 100%
- inhibition [42]: 18.9%
- inhibition [43]: -3.82%
- inhibition [44]: -2.08%
- inhibition [45]: -5.01%

SMILES: CS(=O)(=O)c1cc(C2(NC(=O)c3cncc4c3cnn4-c3ccc(F)cc3)CC2)ccn1 [BI 639667]
- residual activity [1]: 94%
- residual activity [2]: 98%
- residual activity [3]: 100%
- residual activity [4]: 80%
- residual activity [5]: 100%
- residual activity [6]: 100%
- residual activity [7]: 100%
- residual activity [8]: 100%
- residual activity [9]: 95%
- residual activity [10]: 96%
- residual activity [11]: 95%
- residual activity [12]: 100%
- residual activity [13]: 100%
- residual activity [14]: 66%
- residual activity [15]: 100%
- residual activity [16]: 93%
- residual activity [17]: 100%
- residual activity [18]: 90%
- residual activity [19]: 100%
- residual activity [20]: 49%
- residual activity [21]: 88%
- residual activity [22]: 100%
- residual activity [23]: 87%
- residual activity [24]: 80%
- residual activity [25]: 100%
- residual activity [26]: 47%
- residual activity [27]: 97%
- residual activity [28]: 100%
- residual activity [29]: 45%
- residual activity [30]: 100%
- residual activity [31]: 93%
- residual activity [32]: 78%
- residual activity [33]: 79%
- residual activity [34]: 100%
- residual activity [35]: 100%
- residual activity [36]: 87%
- residual activity [37]: 100%
- residual activity [38]: 100%
- residual activity [39]: 100%
- residual activity [40]: 100%
- residual activity [41]: 100%
- inhibition [42]: 29.6%
- inhibition [43]: -7.71%
- inhibition [44]: -6.8%
- inhibition [45]: -5.91%
